Data on seven compounds can be found in patent publication US11980616B2, “Treating liver disease by selectively eliminating senescent cells” (Buck Institute for Research on Aging, priority 2014, dated 2024).

Molecules are shown by their SMILES.

For series [1], the system named is p16-3MR animals. The experiment in a line: Senescence induced by chemotherapeutic drugs in p16-3MR animals (luminescence). It counts as in vivo, mouse. The conditions noted are these: p<0.05; pomalidomide 5 mg/kg, lenalidomide 50 mg/kg 7 daily injections; doxorubicin 10 mg/kg 2-4 injections. The procedure: To examine senescence induced by different chemotherapeutic drugs, groups of p16-3MR animals (n=4) were treated with thalidomide (100 mg/kg; 7 daily injections); romidepsin (1 mg/kg; 3 injections); pomalidomide (5 mg/kg; 7 daily injections); lenalidomide (50 mg/kg; 7 daily injections); 5-azacytidine (5 mg/kg; 3 injections) and compared with doxorubicin (10 mg/kg, 2-4 injections over 7 days).

Series [2] relates to INK-ATTAC transgenic mice. The experiment in a line: Cardiac stress test (isoproterenol) in aged INK-ATTAC transgenic mice. It counts as in vivo, mouse. As to the method:
To study the impact of senescent cell clearance on health and lifespan, cohorts of INK-ATTAC transgenic mice on FVB×129Sv/E×C57BL/6 mixed or C57BL/6 pure genetic backgrounds were established. At 12 months age, one half of each cohort was injected three times/week with AP20187 to induce apoptosis of p16-positive senescent cells (0.2 mg/kg and 2 mg/kg AP20187 for the mixed and the pure C57BL/6 cohorts, respectively), while the other half of each cohort received vehicle. At 18 months, subsets of male and female mice from each cohort were subjected to a cardiac stress test, in which mice were injected with a lethal dose of isoproterenol (680 mg/kg) and the time to cardiac arrest was recorded.
Cardio-protective signaling pathways are known to provide tolerance to metabolic stresses such as ischemia and hypoxia decline (Granfeldt et al., 2009, Cardiovasc. Res. 83:234-246). However, cardio-protective signaling deteriorates with aging, thus decreasing the functional and adaptive reserve capacity of the heart (Ogawa et al., 1992, Circulation 86:494-503; Wiebe et al., 1998, Clin. J. Sport Med. 8:272-279). ATP-dependent K channels (KATP) play a central role in cardio-protective signaling (Gross and Auchampach, 1992, Cardiovasc. Res. 26:1011-1016). These KATP channels are composed of the pore-forming subunit Kir6.2/Kir6.1, the regulatory subunit Sur2a, and additional accessory proteins. KATP channels are thought to decline with aging due to decreased expression of Sur2a (Du et al., 2006, FASEB J. 20:1131-1141; Jovanovic and Jovanovic, 2009, Curr. Opin. Pharmacol. 9:189-193; Ranki et al., 2002, Mech. Ageing Dev. 123:695-705). […] Thus, the contribution of senescent cells to the age-related decline in Sur2a expression was examined in 18 month old AP20187-treated and vehicle treated mice from subjected to the cardiac stress test previously described. […] Taken together, these experiments indicate that the presence of senescent cells with aging negatively impacts KATP channel function, and senescent cell clearance is an effective therapy to counteract this deterioration.

Series [3] concerns 3MR or INK-ATTAC mice exposed to cigarette smoke. The experiment in a line: Chronic cigarette smoke exposure model (COPD). It counts as in vivo, mouse. The conditions noted are these: after 2 months of cigarette smoke exposure; vs untreated controls. The procedure: In a second animal model for pulmonary diseases (e.g., COPD), mice were exposed to cigarette smoke. The effect of a senolytic agent on the mice exposed to smoke is assessed by senescent cell clearance, lung function, and histopathology.
Six week-old 3MR (n=35) or INK-ATTAC (n=35) mice were chronically exposed to cigarette smoke generated from a Teague TE-10 system, an automatically-controlled cigarette smoking machine that produces a combination of side-stream and mainstream cigarette smoke in a chamber, which is transported to a collecting and mixing chamber where varying amounts of air is mixed with the smoke mixture. The COPD protocol was adapted from the COPD core facility at Johns Hopkins University (at Internet site web.jhu.edu/Biswal/exposure_core/copd.html#Cigarette_Smoke) (Rangasamy et al., 2004, J. Clin. Invest. 114:1248-1259; Yao et al., 2012, J. Clin. Invest. 122:2032-2045). Mice received a total of 6 hours of cigarette smoke exposure per day, 5 days a week for 6 months. Each lighted cigarette (3R4F research cigarettes containing 10.9 mg of total particulate matter (TPM), 9.4 mg of tar, and 0.726 mg of nicotine, and 11.9 mg carbon monoxide per cigarette [University of Kentucky, Lexington, KY]) was puffed for 2 seconds and once every minute for a total of 8 puffs, with the flow rate of 1.05 L/min, to provide a standard puff of 35 cm^3. The smoke machine was adjusted to produce a mixture of side stream smoke (89%) and mainstream smoke (11%) by smoldering 2 cigarettes at one time. The smoke chamber atmosphere was monitored for total suspended particulates (80-120 mg/m^3) and carbon monoxide (350 ppm). Beginning at day 7, (10) INK-ATTAC and (10) 3MR mice were treated with AP20187 (3× per week) or gancyclovir (5 consecutive days of treatment followed by 16 days off drug, repeated until the end of the experiment), respectively. An equal number of mice received the corresponding vehicle. The remaining […] (15 INK-ATTAC and 15 3MR) were evenly split with 5 of each genetically modified strain placed into three different treatment groups. One group (n=10) received Nutlin-3A (25 mg/kg dissolved in 10% DMSO/3% Tween-20 in PBS, treated 14 days consecutively followed by 14 days off drug, repeated until the end of the experiment). […]
After two months of cigarette smoke exposure, lung function was assessed by monitoring oxygen saturation using the MouseSTAT PhysioSuite pulse oximeter (Kent Scientific). […] Mice were monitored for 30 seconds and the average peripheral capillary oxygen saturation (SpO2) measurement over this duration was calculated.

In series [4] the test system is non-senescent IMR90 cells. The experiment in a line: CellTiter-Glo cell viability assay, non-senescent IMR90. The settings on record: Homo sapiens, IMR-90, 72 h; non-senescent IMR90, 3 days. It counts as cell-based. The procedure: (§1) To determine whether ABT-263 is selectively toxic to senescent cells compared to non-senescent cells, a cell viability assay was used to assess cell survival following treatment with ABT-263. IMR90 cells (human primary lung fibroblasts (IMR90) (IMR-90 (ATCC® CCL-186™, Manassas, Virginia) were seeded in six well plates, and cells were induced to senescence with 10 Gy of ionizing radiation (IR) (Day 0). The media was refreshed every 3 days. The senescent phenotype is allowed to develop for 7 days at which point a cell count was made to determine the baseline number of cells followed by seeding into 96-well plates. On day 8, the senescent cells (irradiated) and the non-senescent cells (the non-radiated cells), were exposed to serial dilutions of ABT-263 for a period of 3 days. ABT-263 concentrations ranged from 0.5 nM to 3 μM. Each condition was seeded in triplicate.
(§2) After three days of treatment (Day 11), cells were assayed for cell survival using the commercially available CellTiter-Glo® (CTG) Luminescent Cell Viability Assay (Promega Corporation, Madison, Wisconsin). The assay determines the number of viable cells in culture based on the quantitation of ATP present which is an indicator of metabolically active cells.
The experiments performed for assessing the effect of these other Bcl-2 inhibitors were performed essentially as described in Example 7. […]

For series [5], the system named is senescent IMR90 cells. The experiment in a line: CellTiter-Glo cell viability assay, senescent IMR90. It counts as cell-based, human. The procedure:
as §1, §2
The experiments performed for assessing the effect of these other Bcl-2 inhibitors were performed essentially as described in Example 7. Cells were exposed to ABT-199 at serial dilution concentrations ranging from 15 nM to 100 μM (FIGS. 26 and 27). Cells were exposed to Obatoclax at concentrations ranging from 1.4 nM to 9 μM (FIG. 28).
IMR90 cells were induced to senescence by irradiation as described in Example 7. The irradiated IMR90 cells and non-senescent IMR90 cells were then exposed to a compound called ML214 that is a Bcl-2A1 specific inhibitor.
The effect of ABT-263 in combination with the Akt inhibitor MK-2206 was tested for selective toxicity of senescent cells compared to non-senescent cells in IMR90 cells. The methods of Example 7 were repeated except that cell cultures were exposed to 10 nM MK-2206 (Selleckem, Cat #S1078) in addition to serial dilutions of ABT-263.
(In general: ATP-based viability assays read luminescence as a measure of living cells.)

Series [6] has as its system p16-3MR transgenic mice. The experiment in a line: Paclitaxel-induced senescence in p16-3MR mice. It counts as in vivo, mouse. The settings on record: 20 mg/kg three times every two days. The procedure:
Paclitaxel induces senescence and SASP in p16-3MR transgenic mice. Groups of mice (n=4) were treated three times every two days with 20 mg/kg paclitaxel or vehicle. […] The level of mRNA in skin was determined for each of the target genes: p16, 3MR transgene, and IL-6.

Series [7] relates to myocardial damage in patients. The conditions noted are these: drug product inserts; cited from earlier work.

On to `Nc1cccc2c1C(=O)N(C1CCC(=O)NC1=O)C2=O` (stereo not drawn) [omalidomide], for which the “Level of senescent cells (luminescence)” value in series [1] was “significant levels of senescent cells”.
Same read-out and setting: the same measure for `Nc1cccc2c1CN(C1CCC(=O)NC1=O)C2=O` (stereo not drawn) [lenalidomide]: “significant levels of senescent cells”.
As to `CC[C@H](C(=O)N1CCCC[C@H]1C(=O)O[C@H](CCc1ccc(OC)c(OC)c1)c1cccc(OCC(=O)NCC(CNC(=O)COc2cccc([C@@H](CCc3ccc(OC)c(OC)c3)OC(=O)[C@@H]3CCCCN3C(=O)[C@@H](CC)c3cc(OC)c(OC)c(OC)c3)c2)CN(C)C)c1)c1cc(OC)c(OC)c(OC)c1` [AP20187], in series [2] (0.2 or 2 mg/kg three times/week from 12 to 18 months, isoproterenol 680 mg/kg), the “Time to cardiac arrest after lethal isoproterenol” value is recorded as “sustained youthful cardio-protection”. The Sur2a expression result in series [2] (18-month-old female mice) was “sustained Sur2a expression”. Besides, the Median lifespan result in series [2] (INK-ATTAC mice) is reported as “median lifespan extension”. For the same compound, the SpO2 levels result in series [3] is reported as “statistically significant increases”.
As a reminder, the IC50 is the midpoint of a concentration-inhibition curve. `COC1=CC(c2cc3ccccc3[nH]2)=N/C1=C\c1[nH]c(C)cc1C` [Obatoclax]: the half-inhibitory concentration (IC50) stood at 75 nM in series [4] and 125 nM in series [5] (Homo sapiens, IMR-90, 72 h, senescent IMR90, 3 days).
Take `CC1(C)CCC(CN2CCN(c3ccc(C(=O)NS(=O)(=O)c4ccc(NCC5CCOCC5)c([N+](=O)[O-])c4)c(Oc4cnc5[nH]ccc5c4)c3)CC2)=C(c2ccc(Cl)cc2)C1` [ABT-199]: the “Selective targeting (killing) of senescent cells over non-senescent cells” value in series [5] (IMR90) is on record as “inability”.
Consider `CC(=O)O[C@H]1C(=O)[C@@]2(C)[C@H]([C@H](OC(=O)c3ccccc3)[C@]3(O)C[C@H](OC(=O)[C@H](O)[C@@H](NC(=O)c4ccccc4)c4ccccc4)C(C)=C1C3(C)C)[C@]1(OC(C)=O)CO[C@@H]1C[C@@H]2O` [paclitaxel], for which the “Senescence shown by luminescence” value in series [6] was “Senescence was observed”. In series [6] (vs vehicle), the “3MR transgene mRNA in skin” value is listed as “increased”, the “IL-6 mRNA in skin” value is on record as “increased” and the “p16 mRNA in skin” value is on record as “increased”.
Consider `COc1cccc2c1C(=O)c1c(O)c3c(c(O)c1C2=O)C[C@@](O)(C(=O)CO)C[C@@H]3O[C@H]1C[C@H](N)[C@H](O)[C@H](C)O1` [doxorubicin], for which the “Total lifetime dose above which myocardial damage may lead to congestive heart failure” value in series [7] is “exceeds 550 mg/m^2”. The “Level of senescent cells (luminescence)” value in series [1] is on record as “significant levels of senescent cells”.
